Results: US20220289708A1, “SUBSTITUTED N-PHENYL URACILS, SALTS THEREOF AND THEIR USE AS HERBICIDAL AGENTS” (Bayer Aktiengesellschaft, priority 2019, published 2022)

What was measured:
Assay type in all cases: in vivo
[1] = system: Oryza sativa; test: Post-emergence crop plant compatibility; details: application rate 5 g/ha
How it was run: (§1)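 Greenhouse crop plants in sandy loam sprayed at one-leaf stage (2-3 weeks after sowing) with WP or EC formulations plus 0.5% additive, 600 l/ha water, at 5 g/ha or 20 g/ha. Damage scored visually after about 3 weeks as % versus untreated controls (100% = plants dead).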

[2] = system: Triticum aestivum; test: Post-emergence crop plant compatibility; details: application rate 5 g/ha
How it was run: as §1

[3] = system: Digitaria sanguinalis; test: Post-emergence herbicidal action; details: rated visually after about 3 weeks vs untreated controls
How it was run: (§2)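 Post-em spray, one-leaf stage (2–3 wk post-sowing), sandy loam, greenhouse. WP/EC in aqueous suspension/emulsion + 0.5% additive, 600 l/ha water, ≤20 g/ha. Visual % rating ~3 wk vs untreated: 100% dead, 0% like control.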

[4] = system: Pharbitis purpurea; test: Post-emergence herbicidal action; details: application rate 5 g/ha, rated visually after about 3 weeks vs untreated controls
How it was run: as §2

[5] = system: Amaranthus retroflexus; test: Post-emergence herbicidal action; details: application rate 5 g/ha, rated visually after about 3 weeks vs untreated controls
How it was run: as §2

[6] = system: Veronica persica; test: Post-emergence herbicidal action; details: application rate 5 g/ha
How it was run: as §2

[7] = system: Abutilon theophrasti; test: Post-emergence herbicidal action; details: application rate 5 g/ha, rated visually after about 3 weeks vs untreated controls
How it was run: as §2

[8] = system: Echinochloa crus-galli; test: Post-emergence herbicidal action; details: application rate 5 g/ha, rated visually after about 3 weeks vs untreated controls
How it was run: as §2

[9] = system: Lolium rigidum; test: Pre-emergence herbicidal action; details: application rate 80 g/ha
Excerpt: (§3) B. Pre-Emergence Herbicidal Action and Crop Plant Compatibility Seeds of monocotyledonous and dicotyledonous weed plants and crop plants were placed in plastic or organic planting pots and covered with soil. The compounds of the invention, formulated in the form of wettable powders (WP) or as emulsion concentrates (EC), were then applied to the surface of the covering soil as aqueous suspension or emulsion with addition of 0.5% additive at a water application rate equivalent to 600 l/ha (converted). After the treatment, the pots were placed in a greenhouse and kept under good growth conditions for the test plants. After about 3 weeks, the effect of the preparations was scored visually in comparison with untreated controls as percentages. For example, 100% activity=the plants have died, 0% activity=like control plants. Tables B1 to B13 below show the effects of selected compounds of the general formula (I) according to Tables I.1 to I.36 on various harmful plants and at an application rate corresponding to 80 g/ha or less, which were obtained by the experimental procedure mentioned above.

[10] = system: Matricaria inodora; test: Pre-emergence herbicidal action; details: application rate 20 g/ha
Excerpt: as §3

[11] = system: Digitaria sanguinalis; test: Pre-emergence herbicidal action; details: application rate 20 g/ha
Excerpt: as §3

[12] = system: Polygonum convolvulus; test: Pre-emergence herbicidal action; details: application rate 20 g/ha
Excerpt: as §3

[13] = system: Pharbitis purpurea; test: Pre-emergence herbicidal action
Excerpt: as §3

[14] = system: Amaranthus retroflexus; test: Pre-emergence herbicidal action; details: application rate 20 g/ha
Excerpt: as §3

[15] = system: Veronica persica; test: Pre-emergence herbicidal action; details: application rate 20 g/ha
Excerpt: as §3

[16] = system: Abutilon theophrasti; test: Pre-emergence herbicidal action; details: application rate 20 g/ha
Excerpt: as §3

[17] = system: Setaria viridis; test: Pre-emergence herbicidal action; details: application rate 20 g/ha
Excerpt: as §3

[18] = system: Viola tricolor; test: Pre-emergence herbicidal action; details: application rate 20 g/ha
Excerpt: as §3

[19] = system: Echinochloa crus-galli; test: Pre-emergence herbicidal action
Excerpt: as §3

[20] = system: Alopecurus myosuroides; test: Pre-emergence herbicidal action
Excerpt: as §3

[21] = system: Avena fatua; test: Pre-emergence herbicidal action; details: application rate 80 g/ha
Excerpt: as §3

[22] = system: Zea mays; test: Pre-emergence crop plant compatibility; details: application rate 20 g/ha
Excerpt: (§4) B. Pre-Emergence Herbicidal Action and Crop Plant Compatibility
as §3, with “Seeds” for “B. Pre-Emergence Herbicidal Action and Crop Plant Compatibility Seeds”, “plants.” for “plants. Tables B1 to B13 below show the effects of selected compounds of the general formula (I) according to Tables I.1 to I.36 on various harmful plants and at an application rate corresponding to 80 g/ha or less, which were obtained by the experimental procedure mentioned above.”
(§5) Tables B14 to B16 below show the crop plant compatibilities of selected compounds of the general formula (I) according to Tables I.1 to I.36 at an application rate corresponding to 20 g/ha, which were obtained in experiments according to the experimental procedure mentioned above. Here, the observed effects on selected crop plants are stated in comparison to the untreated controls (values in %).

[23] = system: Triticum aestivum; test: Pre-emergence crop plant compatibility; details: application rate 20 g/ha
Excerpt: as §4
as §3, with “Seeds” for “B. Pre-Emergence Herbicidal Action and Crop Plant Compatibility Seeds”, “plants.” for “plants. Tables B1 to B13 below show the effects of selected compounds of the general formula (I) according to Tables I.1 to I.36 on various harmful plants and at an application rate corresponding to 80 g/ha or less, which were obtained by the experimental procedure mentioned above.”
as §5

[24] = system: Zea mays; test: Post-emergence crop plant compatibility; details: application rate 5 g/ha
How it was run: as §1

[25] = system: Matricaria inodora; test: Post-emergence herbicidal action; details: application rate 5 g/ha, rated visually after about 3 weeks vs untreated controls
How it was run: as §2

[26] = system: Avena fatua; test: Post-emergence herbicidal action; details: application rate 20 g/ha, rated visually after about 3 weeks vs untreated controls
How it was run: as §2

Structure (SMILES) | Oryza sativa (efficacy in %) [1] [%] | Digitaria sanguinalis (efficacy in %) ([3]; application rate 5 g/ha) [%] | Pharbitis purpurea (efficacy in %) [4] [%] | Amaranthus retroflexus (efficacy in %) [5] [%] | Veronica persica (efficacy in %) [6] [%] | Abutilon theophrasti (efficacy in %) [7] [%] | Echinochloa crus-galli (efficacy in %) [8] [%] | Lolium rigidum (efficacy in %) [9] [%] | Matricaria inodora (efficacy in %) [10] [%] | Digitaria sanguinalis (efficacy in %) [11] [%] | Polygonum convolvulus (efficacy in %) [12] [%] | Pharbitis purpurea (efficacy in %) ([13]; application rate 20 g/ha) [%] | Amaranthus retroflexus (efficacy in %) [14] [%] | Veronica persica (efficacy in %) [15] [%] | Abutilon theophrasti (efficacy in %) [16] [%] | Setaria viridis (efficacy in %) [17] [%] | Viola tricolor (efficacy in %) [18] [%] | Avena fatua (efficacy in %) [21] [%] | Zea mays (efficacy in %) [22] [%] | Triticum aestivum (efficacy in %) [23] [%] | other results
Cn1c(C(F)(F)F)cc(=O)n(-c2cc(Oc3cccnc3OCC(=O)OCCOCc3ccccc3)c(Cl)cc2F)c1=O [I.15-6] | 20 | 100 | 100 | 100 | 100 | 100 | 100 | 100 | 100 | 100 | 100 | 100 | 100 | 100 | 100 | 100 | 100 | 100 | 0 | 10 | Triticum aestivum (efficacy in %) [2]: 20%; Echinochloa crus-galli (efficacy in %) ([19]; application rate 80 g/ha): 100%; Alopecurus myosuroides (efficacy in %) ([20]; application rate 20 g/ha): 90%
COCCOCCOCCOCCOC(=O)COc1ncccc1Oc1cc(-n2c(=O)cc(C(F)(F)F)n(C)c2=O)c(F)cc1Cl [I.15-154] | 0 |  | 100 | 100 | 100 | 100 |  | 100 | 100 | 100 | 100 |  | 100 | 100 | 100 | 100 | 100 | 100 | 0 | 10 | Triticum aestivum (efficacy in %) [2]: 0%; Digitaria sanguinalis (efficacy in %) ([3]; application rate 20 g/ha): 100%; Pharbitis purpurea (efficacy in %) ([13]; application rate 80 g/ha): 100%; Echinochloa crus-galli (efficacy in %) ([19]; application rate 80 g/ha): 100%; Alopecurus myosuroides (efficacy in %) ([20]; application rate 80 g/ha): 100%
Cn1c(C(F)(F)F)cc(=O)n(-c2cc(Oc3cccnc3OCC(=O)OCCS(C)(=O)=O)c(Cl)cc2F)c1=O [I.15-166] |  |  |  | 100 | 100 | 100 |  | 100 | 100 | 100 | 100 | 100 | 100 | 100 | 100 | 100 | 100 | 100 |  | 20 | Triticum aestivum (efficacy in %) [2]: 0%; Echinochloa crus-galli (efficacy in %) ([19]; application rate 20 g/ha): 80%; Alopecurus myosuroides (efficacy in %) ([20]; application rate 20 g/ha): 90%
Cn1c(C(F)(F)F)cc(=O)n(-c2cc(Oc3cccnc3OCC(=O)OC[Si](C)(C)C)c(Cl)cc2F)c1=O [I.15-201] | 0 | 100 | 100 | 100 | 100 | 100 | 100 | 100 | 100 | 100 | 100 | 100 | 100 | 100 | 100 | 100 | 100 | 100 | 0 |  | Zea mays (efficacy in %) [24]: 20%; Echinochloa crus-galli (efficacy in %) ([19]; application rate 80 g/ha): 100%; Alopecurus myosuroides (efficacy in %) ([20]; application rate 80 g/ha): 100%
CC(C#N)COC(=O)COc1ncccc1Oc1cc(-n2c(=O)cc(C(F)(F)F)n(C)c2=O)c(F)cc1Cl (stereo not shown) [I.15-405] |  | 100 | 100 |  | 100 |  | 100 | 100 | 100 | 100 | 90 | 100 | 100 | 100 | 100 | 100 | 100 | 100 | 0 | 20 | Matricaria inodora (efficacy in %) [25]: 80%; Echinochloa crus-galli (efficacy in %) ([19]; application rate 20 g/ha): 80%; Alopecurus myosuroides (efficacy in %) ([20]; application rate 80 g/ha): 100%
Cn1c(C(F)(F)F)cc(=O)n(-c2cc(Oc3cccnc3OCC(=O)OCC3OCCO3)c(Cl)cc2F)c1=O [I.15-424] |  | 100 | 100 | 100 | 100 | 100 | 100 | 100 | 100 | 100 | 100 | 100 | 100 | 100 | 100 | 100 | 100 | 100 |  | 10 | Matricaria inodora (efficacy in %) [25]: 100%; Avena fatua (efficacy in %) [26]: 100%; Echinochloa crus-galli (efficacy in %) ([19]; application rate 20 g/ha): 90%; Alopecurus myosuroides (efficacy in %) ([20]; application rate 20 g/ha): 80%
